The subject of series [1] is EAE mice (experimental autoimmune encephalomyelitis). The series can be described thus: Efficacy in EAE animal model of multiple sclerosis: clinical score. The class given is in vivo, C57BL/6 mice. Particulars: for Clinical Score (Day 21): day 2-21, score 0 to 5, vehicle group 3.2.
The subject of series [2] is CD4 T cells, CD8 T cells, Th1 cells and Th17 cells. The series can be described thus: Immune cell infiltration in EAE mice by flow cytometry. The class given is in vivo, C57BL/6 mice. Particulars: for CD8 T Cell (%) / CD4 T Cell (%): tissue not given; for CD8 T Cell (%): vehicle group 16.0; for CD4 T Cell (%): vehicle group 23.2; for Th17 Cell (%): vehicle group 12.4; for Th1 Cell (%): vehicle group 15.4.

For the next series, the system named is prostaglandin D2 (PGD2). The series can be described thus: Toxicity evaluation: flushing side effect by blood prostaglandin D2 concentration (ELISA). As to conditions: C57BL6 male mice, 165.6 mg/kg vs DMF 60 mg/kg, 5 minutes after administration. In kind it is in vivo. The procedure: The flushing phenomenon was confirmed through analysis of the concentration of prostaglandin D2 (PGD2) in the blood. PGD2 is a bio-derived substance closely related to the flushing phenomenon, and the concentration analysis of PGD2 in the blood is known as a standard test method for predicting the side effects of drugs. (The journal of pharmacology and experimental therapeutics, 2008, 327(3), 665.) The test method was conducted by dividing C57BL6 male mice into three groups as test animals. […] PGD2 present in the collected blood was measured using an Elisa kit (#CSB-E14022m, CUSABIO).
A general note: In an ELISA, binding on a coated surface is turned into a signal by an enzyme label.

The conditions of series [3]: cited from earlier work.
The conditions of series [4]: RRMS patients, DRF 462 mg twice daily for 5 weeks; cited from earlier work.
[5] abbreviates: EVOLVE-MS-1 phase 3 clinical program.

Counter-ions that a name gives are not always drawn.

Take `COC(=O)/C=C/C(=O)OC` [Dimethyl fumarate]: in series [1] (DMF 30 mpk oral twice a day), the “Clinical Score (Day 21)” value was found to be 2.3. Also, the “Clinical Score (Day 21)” value in series [1] (DMF 60 mpk oral twice a day) was found to be 1.3. Also, the “Severity of the disease (clinical score) vs negative control” value in series [1] (low (G3, 30 mg/kg) and high (G4, 60 mg/kg) dose) was “significantly reduced the severity of the disease”. In addition, in series [2] (DMF 30 mpk), the “CD8 T Cell (%)” value stood at 8.8%, the “CD4 T Cell (%)” value is 13.1%, the “Th17 Cell (%)” value was 10.1% and the “Th1 Cell (%)” value turned out to be 10.2%. Besides, in series [2] (DMF 60 mpk), the “CD8 T Cell (%)” value amounted to 8.5%, the “CD4 T Cell (%)” value is given as 13.8%, the “Th17 Cell (%)” value is 6.3% and the “Th1 Cell (%)” value was determined as 7.9%.
With `COC(=O)/C=C/C(=O)Oc1ccc(COC(=O)c2ccccc2OC(C)=O)cc1` [Example 1, 4-((acetoxybenzoyloxy)methyl)phenyl Methyl Fumarate], the “Clinical Score (Day 21)” value in series [1] (chemical formula 1 82.8 mpk oral twice a day) was 2.0. Further, the “Clinical Score (Day 21)” value in series [1] (chemical formula 1 165.6 mpk oral twice a day) is given as 1.5. In addition, the Clinical score improvement entry in series [1] (low dose (G5, 82.8 mg/kg) and high dose (G6, 165.6 mg/kg)) is given as “significant clinical score improvement effects”. In series [2] (FIG. 1, low-dose (G5) and high-dose (G6)), the “Infiltration rate of CD4 and CD8 T cells in the lymph nodes compared to disease-induced group (G2)” value is listed as “significant decrease”. Also, the “Infiltration rate of CD4 and CD8 T cells in the central nervous system compared to disease-induced group (G2)” value in series [2] (FIG. 2, low-dose (G5) and high-dose (G6)) is given as “significant decrease”. In series [2] (FIG. 3, low-dose (G5) and high-dose (G6)), the “Infiltration rate of Th1 and Th17 cells in the lymph nodes compared to disease-induced group (G2)” value was “decrease”. In series [2] (chemical formula 1 82.8 mpk), the “CD8 T Cell (%)” value is on record as 7.8%, the “CD4 T Cell (%)” value came out at 11.2%, the “Th17 Cell (%)” value is 8.8% and the “Th1 Cell (%)” value is 8.8%. In addition, in series [2] (chemical formula 1 165.6 mpk), the “CD8 T Cell (%)” value is on record as 4.7%, the “CD4 T Cell (%)” value is recorded as 6.5%, the “Th17 Cell (%)” value came to 7.5% and the “Th1 Cell (%)” value came out at 6.4%. For the same molecule, the “Decrease of blood PGD2 compared to the group administered with dimethyl fumarate” value in the series with prostaglandin D2 (PGD2) is reported as 76.6%.
As to `COC(=O)/C=C/C(=O)OCCN1C(=O)CCC1=O` [diroximel fumarate], in series [3] (setting [5]), the “Subjects who discontinued administration” value is 14.9% and the “Subjects who discontinued due to drug-induced side effects” value is 6.3%. The “Incidence of gastrointestinal side effects (GI TEAEs)” value in series [3] (all patients administered DRF, phase 3 clinical trials) is reported as “more than 30%”. Moreover, the “Decrease of incidence of gastrointestinal side effects compared to DMF group” value in series [3] (phase 3 clinical trials, vs the 40% incidence with DMF) is 10%. Also, in series [4], the “Diarrhea, frequency reported” value is listed as 15.4%; the “Flushing, frequency reported” value is given as 32.8%; the “Nausea, frequency reported” value is 14.6%.
